Laboratory results taken from publication PMC7801110 (Journal of Enzyme Inhibition and Medicinal Chemistry, 2021).
“Also recorded” adds a separate entry of the source.

Tests used:
[1] = test system: insulin-degrading enzyme (IDE), His-Tag, rat, recombinant; assay: IDE (135 nM) in PBS (pH 7.4); conditions: 37 °C, up to 180 min
[2] = molecular target: T1, IDE, His-Tag, rat, recombinant (Rattus norvegicus, UniProt P35559); assay: HPLC-MS enzymatic assay: degradation of NPFF and NPAF by IDE; assay type: in vitro ADME; conditions: PBS pH 7.4, 37 °C, LC-ESI/MS; for cleavage of the peptide by IDE: stability with named protease IDE (135 nM), peptide 20 μM, aliquots 0-180 min, stopped with 1% TFA, repeated three times
T1 construct: His-Tag; purchased Sigma Aldrich; host or cells: Spodoptera frugiperda
T1 sequence (P35559 1-1019): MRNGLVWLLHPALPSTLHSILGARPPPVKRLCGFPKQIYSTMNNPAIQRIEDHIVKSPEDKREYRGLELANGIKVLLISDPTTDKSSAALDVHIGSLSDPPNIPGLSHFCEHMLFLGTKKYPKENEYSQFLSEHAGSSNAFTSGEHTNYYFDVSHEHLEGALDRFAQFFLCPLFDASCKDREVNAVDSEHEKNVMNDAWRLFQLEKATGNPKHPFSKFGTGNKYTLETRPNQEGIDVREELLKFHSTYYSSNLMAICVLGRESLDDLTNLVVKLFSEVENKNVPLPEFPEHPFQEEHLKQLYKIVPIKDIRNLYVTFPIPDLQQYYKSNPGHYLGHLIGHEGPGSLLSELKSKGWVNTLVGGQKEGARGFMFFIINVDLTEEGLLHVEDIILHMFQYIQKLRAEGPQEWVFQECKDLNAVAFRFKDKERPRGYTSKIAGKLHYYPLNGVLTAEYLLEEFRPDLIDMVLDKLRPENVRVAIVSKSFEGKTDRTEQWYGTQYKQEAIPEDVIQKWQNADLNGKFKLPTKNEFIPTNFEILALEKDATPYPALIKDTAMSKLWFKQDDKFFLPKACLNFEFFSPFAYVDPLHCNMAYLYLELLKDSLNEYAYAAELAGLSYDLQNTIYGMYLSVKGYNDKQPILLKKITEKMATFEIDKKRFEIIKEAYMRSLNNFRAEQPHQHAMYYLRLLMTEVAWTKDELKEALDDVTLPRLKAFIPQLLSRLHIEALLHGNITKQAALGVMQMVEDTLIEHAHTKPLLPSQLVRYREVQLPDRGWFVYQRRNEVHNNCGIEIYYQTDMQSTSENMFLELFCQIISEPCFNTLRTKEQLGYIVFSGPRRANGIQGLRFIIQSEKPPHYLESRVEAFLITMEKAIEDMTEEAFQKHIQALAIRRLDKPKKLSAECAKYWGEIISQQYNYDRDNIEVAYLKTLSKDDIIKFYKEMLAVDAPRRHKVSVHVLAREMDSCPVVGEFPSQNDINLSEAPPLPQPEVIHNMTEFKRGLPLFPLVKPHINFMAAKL
Description: IDE, His-Tag, rat, recombinant, Spodoptera frugiperda, were purchased from Sigma Aldrich. […] Peptides were purified by the high-performance liquid chromatography (HPLC) and tested for their purity using ESI MS. Purity was above 95%. […] The liquid chromatography-electrospray ionisation mass spectrometry (LC-ESI/MS) experiments were carried out by using a LCQ Deca XP instrument (Thermo Electron Corporation, USA). All solutions were incubated in PBS (pH 7.4) at 37 °C. […] Samples were kept at 4 °C before HPLC-MS analysis. […] Separation of the generated fragments was carried out by the reversed-phase chromatography using a Jupiter® 5 µm C4 300 Å (LC Column 150 × 4.6 mm) column from Phenomenex at the flow rate of 250 μl/min. MS-MS experiments were used for final identification of the peptide fragments. All methodological details and a semiquantitative method were already described in our previous work, and the absolute intensities of the peaks were normalised to the total ion current[18]^,[24]^,[25]. The experiments were repeated three times to ensure reproducibility and estimate the error bars on the HPLC-MS results.

[3] = molecular target: T1, IDE, His-Tag, rat, recombinant; assay: Insulin degradation by IDE in the presence of NPAF/NPFF (HPLC-MS); assay type: biochemical; conditions: PBS pH 7.4, 37 °C, LC-ESI/MS; for effect on insulin degradation by IDE after 3 h pre-incubation of the neuropeptide with IDE (NP fragments): NP 20 μM incubated 3 h with IDE 135 nM, then insulin 10 μM added, data not shown
Description: IDE, His-Tag, rat, recombinant, Spodoptera frugiperda, were purchased from Sigma Aldrich. NPAF, NPFF were manually synthesised by the solid-phase method using Fmoc chemistry. Peptides were purified by the high-performance liquid chromatography (HPLC) and tested for their purity using ESI MS. […] The liquid chromatography-electrospray ionisation mass spectrometry (LC-ESI/MS) experiments were carried out by using a LCQ Deca XP instrument (Thermo Electron Corporation, USA). All solutions were incubated in PBS (pH 7.4) at 37 °C. After incubations, sample aliquots at time 0; 10; 30; 45; 60 and 180 min were taken and a 10% solution of TFA was added to the aliquots in order to achieve a final TFA concentration of 1% in all the samples to stop the enzymatic reaction. Samples were kept at 4 °C before HPLC-MS analysis. […] Separation of the generated fragments was carried out by the reversed-phase chromatography using a Jupiter® 5 µm C4 300 Å (LC Column 150 × 4.6 mm) column from Phenomenex at the flow rate of 250 μl/min. MS-MS experiments were used for final identification of the peptide fragments. All methodological details and a semiquantitative method were already described in our previous work, and the absolute intensities of the peaks were normalised to the total ion current[18]^,[24]^,[25]. The experiments were repeated three times to ensure reproducibility and estimate the error bars on the HPLC-MS results.

Row | Substance | cleaved bond [1] | cleavage of the peptide by IDE [2] | effect on insulin degradation by IDE after 3 h pre-incubation of the neuropeptide with IDE (NP fragments) [3] | also measured
1 | HPhe-Leu-Phe-Gln-Pro-Gln-Arg-PheOH | Gln-Arg, major, 10 min | – | – | –
2 | HAla-Gly-Glu-Gly-Leu-Ser-Ser-Pro-Phe-Trp-Ser-Leu-Ala-Ala-Pro-Gln-Arg-PheOH | Gly-Glu; also recorded: Ser-Leu, major, 10 min; also recorded: Leu-Ala, major, 10 min; also recorded: Gln-Arg, major, 10 min | – | – | –
3 | HAla-Gly-Glu-Gly-Leu-Ser-Ser-Pro-Phe-Trp-Ser-Leu-Ala-Ala-Pro-GlnOH [cryptic peptide at 1617.8 m/z, cryptic peptide formed from NPAF by IDE, detected at m/z 1617.8] | – | – | – | incubation time at which the relative intensity of the cryptic peptide reaches a maximum ([2]; NPAF 20 μM with IDE 135 nM, intensities normalised to total ion current, abundance diminishes afterwards): about 30 min
4 | HPhe-Leu-Phe-Gln-Pro-Gln-Arg-PheOH [NPFF, neuropeptide generated from the NPFF precursor (pro-NPFF(A)), manually synthesised by Fmoc solid-phase method] | – | able to cleave | no activation effect | –
5 | HAla-Gly-Glu-Gly-Leu-Ser-Ser-Pro-Phe-Trp-Ser-Leu-Ala-Ala-Pro-Gln-Arg-PheOH [NPAF, neuropeptide generated from the NPFF precursor (pro-NPFF(A)), manually synthesised by Fmoc solid-phase method] | – | able to cleave | no activation effect | effect of the neuropeptide on insulin degradation by IDE (insulin molecular peak decrease) ([3]; NP 20 μM co-incubated with insulin 10 μM and IDE 135 nM, performed three times): activating effect
